Key:
[1] = target: Tyrosine-protein kinase JAK2 (Homo sapiens, UniProt O60674)
[2] = target: T1, Atypical kinase COQ8B, mitochondrial (Homo sapiens, UniProt Q96D53)
T1 sequence (Q96D53 whole entry): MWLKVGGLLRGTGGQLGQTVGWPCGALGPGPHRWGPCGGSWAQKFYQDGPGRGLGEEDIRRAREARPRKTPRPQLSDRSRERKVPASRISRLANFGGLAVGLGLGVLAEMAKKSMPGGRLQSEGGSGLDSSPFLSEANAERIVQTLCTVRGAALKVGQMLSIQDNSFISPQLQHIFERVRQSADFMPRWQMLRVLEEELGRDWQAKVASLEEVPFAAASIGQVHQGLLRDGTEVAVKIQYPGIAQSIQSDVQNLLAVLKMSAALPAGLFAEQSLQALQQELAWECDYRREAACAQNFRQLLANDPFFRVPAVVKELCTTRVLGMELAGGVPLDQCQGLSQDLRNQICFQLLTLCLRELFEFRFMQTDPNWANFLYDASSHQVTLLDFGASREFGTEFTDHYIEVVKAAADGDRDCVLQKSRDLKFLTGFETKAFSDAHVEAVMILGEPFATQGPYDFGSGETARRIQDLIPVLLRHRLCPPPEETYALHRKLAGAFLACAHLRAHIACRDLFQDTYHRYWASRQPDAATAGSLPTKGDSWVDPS

[3] = target: Ephrin type-A receptor 7 (Homo sapiens, UniProt Q15375)
Ephrin type-A receptor 7, sequence (Q15375 whole entry): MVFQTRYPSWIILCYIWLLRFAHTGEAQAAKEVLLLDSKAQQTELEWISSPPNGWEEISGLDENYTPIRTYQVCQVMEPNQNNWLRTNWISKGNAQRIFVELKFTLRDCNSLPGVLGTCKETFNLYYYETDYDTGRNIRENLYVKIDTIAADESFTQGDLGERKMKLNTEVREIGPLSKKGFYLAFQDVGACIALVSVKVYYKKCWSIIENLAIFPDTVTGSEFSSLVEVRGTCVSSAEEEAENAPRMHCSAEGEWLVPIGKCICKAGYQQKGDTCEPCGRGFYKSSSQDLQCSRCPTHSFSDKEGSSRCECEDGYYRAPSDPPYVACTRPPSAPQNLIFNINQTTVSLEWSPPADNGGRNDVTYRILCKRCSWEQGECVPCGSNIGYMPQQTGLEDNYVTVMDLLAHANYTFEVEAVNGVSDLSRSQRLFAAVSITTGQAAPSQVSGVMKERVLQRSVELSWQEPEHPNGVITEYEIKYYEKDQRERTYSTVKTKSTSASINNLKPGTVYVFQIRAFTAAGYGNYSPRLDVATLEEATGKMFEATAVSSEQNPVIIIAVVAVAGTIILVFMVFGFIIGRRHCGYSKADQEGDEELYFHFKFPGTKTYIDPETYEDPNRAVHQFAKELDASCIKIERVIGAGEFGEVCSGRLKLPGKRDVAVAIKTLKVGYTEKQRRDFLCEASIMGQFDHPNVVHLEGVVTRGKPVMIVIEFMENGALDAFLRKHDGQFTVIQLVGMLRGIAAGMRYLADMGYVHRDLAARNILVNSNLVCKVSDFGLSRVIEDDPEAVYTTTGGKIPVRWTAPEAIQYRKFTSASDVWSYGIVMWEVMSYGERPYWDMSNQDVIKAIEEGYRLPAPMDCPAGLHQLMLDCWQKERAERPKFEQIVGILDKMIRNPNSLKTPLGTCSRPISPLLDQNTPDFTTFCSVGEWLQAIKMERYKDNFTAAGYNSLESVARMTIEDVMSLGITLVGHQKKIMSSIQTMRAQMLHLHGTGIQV

[4] = target: T2, Mitogen-activated protein kinase kinase kinase 5 (Homo sapiens, UniProt Q99683)
T2 sequence (Q99683 whole entry): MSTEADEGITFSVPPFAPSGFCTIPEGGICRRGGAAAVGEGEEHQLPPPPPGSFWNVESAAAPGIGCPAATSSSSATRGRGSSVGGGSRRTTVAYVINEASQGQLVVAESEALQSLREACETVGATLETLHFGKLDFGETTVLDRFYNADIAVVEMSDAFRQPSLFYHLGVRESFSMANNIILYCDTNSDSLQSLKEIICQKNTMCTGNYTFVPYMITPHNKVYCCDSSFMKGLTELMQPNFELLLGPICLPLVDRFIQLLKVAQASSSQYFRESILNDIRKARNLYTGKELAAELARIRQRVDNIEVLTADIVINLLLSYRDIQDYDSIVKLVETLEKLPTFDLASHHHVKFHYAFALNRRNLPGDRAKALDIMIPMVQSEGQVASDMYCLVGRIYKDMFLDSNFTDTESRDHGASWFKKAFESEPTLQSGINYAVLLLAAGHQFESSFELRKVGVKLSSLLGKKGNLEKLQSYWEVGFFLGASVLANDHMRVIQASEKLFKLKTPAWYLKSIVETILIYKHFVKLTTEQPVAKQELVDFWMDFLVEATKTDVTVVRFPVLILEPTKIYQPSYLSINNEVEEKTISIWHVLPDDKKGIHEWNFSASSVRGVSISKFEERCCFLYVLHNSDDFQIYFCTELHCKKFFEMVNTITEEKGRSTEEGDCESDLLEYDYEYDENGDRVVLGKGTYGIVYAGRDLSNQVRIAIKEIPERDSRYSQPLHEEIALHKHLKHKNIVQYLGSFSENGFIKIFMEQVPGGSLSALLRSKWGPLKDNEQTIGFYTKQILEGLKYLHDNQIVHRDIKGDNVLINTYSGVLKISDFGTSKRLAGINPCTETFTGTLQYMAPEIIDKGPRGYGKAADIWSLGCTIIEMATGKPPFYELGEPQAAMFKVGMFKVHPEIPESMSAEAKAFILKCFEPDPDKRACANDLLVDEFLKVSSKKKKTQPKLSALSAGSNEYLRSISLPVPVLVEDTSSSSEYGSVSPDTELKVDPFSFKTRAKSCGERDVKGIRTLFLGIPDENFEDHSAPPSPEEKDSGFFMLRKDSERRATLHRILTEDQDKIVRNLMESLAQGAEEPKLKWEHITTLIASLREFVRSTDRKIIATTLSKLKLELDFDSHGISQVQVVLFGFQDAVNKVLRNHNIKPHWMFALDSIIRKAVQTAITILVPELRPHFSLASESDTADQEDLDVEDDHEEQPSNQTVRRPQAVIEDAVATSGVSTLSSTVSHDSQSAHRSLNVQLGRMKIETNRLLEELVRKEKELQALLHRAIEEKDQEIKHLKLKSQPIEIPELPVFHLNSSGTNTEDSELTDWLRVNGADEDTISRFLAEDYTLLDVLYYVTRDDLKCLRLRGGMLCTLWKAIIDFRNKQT

[5] = target: T3, Tyrosine-protein kinase Mer (Homo sapiens, UniProt Q12866)
T3 sequence (Q12866 whole entry): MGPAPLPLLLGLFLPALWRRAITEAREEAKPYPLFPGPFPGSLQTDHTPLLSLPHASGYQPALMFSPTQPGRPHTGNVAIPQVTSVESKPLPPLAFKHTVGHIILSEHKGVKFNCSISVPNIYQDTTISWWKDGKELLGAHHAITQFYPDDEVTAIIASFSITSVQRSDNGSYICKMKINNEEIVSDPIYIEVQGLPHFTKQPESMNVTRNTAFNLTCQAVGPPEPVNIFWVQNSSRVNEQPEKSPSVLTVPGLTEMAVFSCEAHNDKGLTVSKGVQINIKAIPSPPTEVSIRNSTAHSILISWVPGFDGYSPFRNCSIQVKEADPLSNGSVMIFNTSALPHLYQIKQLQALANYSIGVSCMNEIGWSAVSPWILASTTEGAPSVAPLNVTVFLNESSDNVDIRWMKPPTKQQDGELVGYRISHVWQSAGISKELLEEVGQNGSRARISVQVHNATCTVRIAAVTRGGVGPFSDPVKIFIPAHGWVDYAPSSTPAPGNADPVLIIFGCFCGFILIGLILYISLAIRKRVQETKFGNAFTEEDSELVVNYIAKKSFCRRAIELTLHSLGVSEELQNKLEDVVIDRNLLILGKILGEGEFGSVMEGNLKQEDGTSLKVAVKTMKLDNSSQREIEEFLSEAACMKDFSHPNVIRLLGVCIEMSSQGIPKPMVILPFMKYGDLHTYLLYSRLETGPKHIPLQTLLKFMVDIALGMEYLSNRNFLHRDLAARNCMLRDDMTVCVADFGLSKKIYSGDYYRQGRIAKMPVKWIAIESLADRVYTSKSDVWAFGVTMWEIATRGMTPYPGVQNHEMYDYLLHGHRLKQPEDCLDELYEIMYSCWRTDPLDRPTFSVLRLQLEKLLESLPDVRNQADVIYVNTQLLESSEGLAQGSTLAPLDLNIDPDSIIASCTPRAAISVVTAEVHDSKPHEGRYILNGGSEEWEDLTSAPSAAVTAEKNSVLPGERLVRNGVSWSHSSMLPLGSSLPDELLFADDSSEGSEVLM

[6] = target: Death-associated protein kinase 1 (Homo sapiens, UniProt P53355)
Death-associated protein kinase 1, sequence (P53355 whole entry): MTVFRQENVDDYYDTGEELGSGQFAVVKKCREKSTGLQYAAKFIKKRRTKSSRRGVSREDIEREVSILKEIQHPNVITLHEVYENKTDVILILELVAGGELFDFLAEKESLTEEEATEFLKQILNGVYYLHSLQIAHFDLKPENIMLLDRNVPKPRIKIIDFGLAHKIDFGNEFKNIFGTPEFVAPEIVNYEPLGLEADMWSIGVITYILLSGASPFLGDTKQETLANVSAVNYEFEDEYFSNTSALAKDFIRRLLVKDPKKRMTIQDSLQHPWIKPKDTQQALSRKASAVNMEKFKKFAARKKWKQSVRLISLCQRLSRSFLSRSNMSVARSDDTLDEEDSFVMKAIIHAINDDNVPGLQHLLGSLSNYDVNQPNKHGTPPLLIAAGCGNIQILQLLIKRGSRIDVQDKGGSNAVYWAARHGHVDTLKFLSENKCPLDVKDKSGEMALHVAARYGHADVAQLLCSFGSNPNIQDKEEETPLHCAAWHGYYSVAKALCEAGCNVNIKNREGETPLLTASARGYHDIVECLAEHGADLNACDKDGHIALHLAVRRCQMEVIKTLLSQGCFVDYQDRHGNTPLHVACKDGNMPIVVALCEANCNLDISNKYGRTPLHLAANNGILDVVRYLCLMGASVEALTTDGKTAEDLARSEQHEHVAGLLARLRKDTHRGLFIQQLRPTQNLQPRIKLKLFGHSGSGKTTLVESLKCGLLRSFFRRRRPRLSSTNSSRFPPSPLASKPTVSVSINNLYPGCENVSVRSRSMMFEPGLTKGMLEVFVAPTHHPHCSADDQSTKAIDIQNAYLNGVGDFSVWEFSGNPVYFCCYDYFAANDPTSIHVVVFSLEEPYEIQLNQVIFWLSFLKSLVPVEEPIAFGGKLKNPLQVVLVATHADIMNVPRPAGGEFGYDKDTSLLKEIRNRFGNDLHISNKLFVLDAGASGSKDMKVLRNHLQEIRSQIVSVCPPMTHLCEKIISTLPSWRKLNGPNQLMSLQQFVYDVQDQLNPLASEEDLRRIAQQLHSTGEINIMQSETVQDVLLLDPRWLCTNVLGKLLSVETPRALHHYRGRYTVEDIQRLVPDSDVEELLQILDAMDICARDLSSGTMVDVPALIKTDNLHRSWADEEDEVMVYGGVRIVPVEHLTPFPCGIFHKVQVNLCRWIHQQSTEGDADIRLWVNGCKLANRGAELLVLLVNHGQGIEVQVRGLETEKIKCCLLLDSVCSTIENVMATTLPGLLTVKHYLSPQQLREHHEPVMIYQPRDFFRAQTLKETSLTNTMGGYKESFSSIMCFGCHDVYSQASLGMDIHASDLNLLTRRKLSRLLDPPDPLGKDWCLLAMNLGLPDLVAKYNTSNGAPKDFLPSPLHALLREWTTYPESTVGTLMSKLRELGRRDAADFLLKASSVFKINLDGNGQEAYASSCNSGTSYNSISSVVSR

Tyrosine-protein kinase JAK2, sequence (O60674 whole entry): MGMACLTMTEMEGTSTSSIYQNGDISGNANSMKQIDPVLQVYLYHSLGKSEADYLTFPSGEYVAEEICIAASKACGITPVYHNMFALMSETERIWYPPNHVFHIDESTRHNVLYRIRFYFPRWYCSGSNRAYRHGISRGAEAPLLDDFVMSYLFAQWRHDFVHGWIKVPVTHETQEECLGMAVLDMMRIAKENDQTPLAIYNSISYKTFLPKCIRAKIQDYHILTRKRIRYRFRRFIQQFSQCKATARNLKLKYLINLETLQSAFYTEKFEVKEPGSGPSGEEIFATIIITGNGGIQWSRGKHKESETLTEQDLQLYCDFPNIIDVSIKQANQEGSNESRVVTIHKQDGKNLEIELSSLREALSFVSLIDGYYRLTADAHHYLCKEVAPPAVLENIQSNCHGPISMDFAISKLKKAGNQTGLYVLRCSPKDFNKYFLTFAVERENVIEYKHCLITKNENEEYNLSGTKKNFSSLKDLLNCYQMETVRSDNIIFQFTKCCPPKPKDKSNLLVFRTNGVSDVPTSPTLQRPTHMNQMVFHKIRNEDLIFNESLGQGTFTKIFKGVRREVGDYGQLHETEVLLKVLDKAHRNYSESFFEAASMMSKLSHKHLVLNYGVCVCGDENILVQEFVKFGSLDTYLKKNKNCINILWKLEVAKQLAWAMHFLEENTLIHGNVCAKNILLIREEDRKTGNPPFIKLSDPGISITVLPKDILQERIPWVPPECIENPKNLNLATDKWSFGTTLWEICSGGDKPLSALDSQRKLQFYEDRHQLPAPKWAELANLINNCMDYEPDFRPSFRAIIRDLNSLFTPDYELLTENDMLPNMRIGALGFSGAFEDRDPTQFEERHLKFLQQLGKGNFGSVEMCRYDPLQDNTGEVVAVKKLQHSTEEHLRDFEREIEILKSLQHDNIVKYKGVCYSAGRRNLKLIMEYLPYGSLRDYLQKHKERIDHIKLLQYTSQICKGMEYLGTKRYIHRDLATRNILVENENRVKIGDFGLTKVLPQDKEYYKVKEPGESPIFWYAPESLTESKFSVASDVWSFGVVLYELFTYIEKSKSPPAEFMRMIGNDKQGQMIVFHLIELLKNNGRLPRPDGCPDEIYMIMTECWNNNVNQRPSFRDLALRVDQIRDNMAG

Structure (SMILES)	Kd [1] [µM]	Kd [2] [µM]	Kd [3] [µM]	Kd [4] [µM]	Kd [5] [µM]	Kd [6] [µM]
COCC(=O)NC/C=C/c1ccc2ncnc(Nc3ccc(Oc4ccc(C)nc4)c(C)c3)c2c1 [CP-724714]	> 10	> 10	> 10	> 10	> 10	> 10
Nc1nc(Nc2ccc(S(N)(=O)=O)cc2)nn1C(=O)c1c(F)cccc1F [JNJ-7706621]	–	> 10	3.1	> 10	–	> 10
CCOc1cc2ncc(C#N)c(Nc3ccc(F)c(Cl)c3)c2cc1NC(=O)/C=C/CN(C)C [PELITINIB]	> 10	6.1	> 10	> 10	1.3	> 10
Oc1ccc(-c2nc(-c3ccncc3)c(-c3ccc(F)cc3)[nH]2)cc1 [SB-202190]	> 10	4.9	> 10	> 10	> 10	> 10
NC(=O)c1ccc(-c2nc(-c3ccc4c(c3)OCO4)c(-c3ccccn3)[nH]2)cc1 [SB-431542]	> 10	> 10	> 10	> 10	> 10	> 10
